From patent US9969742B2, “Imidazotriazinone compounds” (Ironwood Pharmaceuticals, Inc., priority 2012, dated 2018)
Read-outs that look alike come from different tables or passages of the source.

How the values were obtained:
Assay type in all cases: biochemical
[1] = target: T1, PDE1A (Homo sapiens, UniProt P54750); assay: Phosphodiesterase enzyme screening assay, PDE1A
T1 construct: purchased Reaction Biology Corporation, Malvern, Pa
Method in brief: (§1)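 Microfluidic mobility-shift assay; values from quadruplicate wells relative to controls. Conditions: 4.0 μM cGMP, 5 mM MgCl2, pH 7.5 HEPES, 1 h R.T., EDTA stop.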

[2] = target: T2, PDE9A2 (Homo sapiens, UniProt O76083); assay: Phosphodiesterase enzyme screening assay, PDE9A2; conditions: read-out: Band (PDE9A2 IC50)
T2 construct: purchased Reaction Biology Corporation, Malvern, Pa
Method in brief: as §1

[3] = target: T3, PDE1B (Homo sapiens, UniProt Q01064); assay: Phosphodiesterase enzyme screening assay, PDE1B
T3 construct: purchased Reaction Biology Corporation, Malvern, Pa
Method in brief: as §1

[4] = ratio of IC50 values, PDE1A versus PDE9A2, value greater than 1 indicates greater selectivity for PDE9A2
[5] = ratio of IC50 values, PDE1B versus PDE9A2, value greater than 1 indicates greater selectivity for PDE9A2
[6] = Table 2, ratio of IC50 values, value greater than 1 indicates greater selectivity for PDE9A2
[7] = Table 1, ratio of IC50 values, value greater than 1 indicates greater selectivity for PDE9A2
[8] = Table 1, 10 concentrations, 4.0 μM cGMP substrate, 1 hour at R.T.

T1 sequence (P54750 whole entry): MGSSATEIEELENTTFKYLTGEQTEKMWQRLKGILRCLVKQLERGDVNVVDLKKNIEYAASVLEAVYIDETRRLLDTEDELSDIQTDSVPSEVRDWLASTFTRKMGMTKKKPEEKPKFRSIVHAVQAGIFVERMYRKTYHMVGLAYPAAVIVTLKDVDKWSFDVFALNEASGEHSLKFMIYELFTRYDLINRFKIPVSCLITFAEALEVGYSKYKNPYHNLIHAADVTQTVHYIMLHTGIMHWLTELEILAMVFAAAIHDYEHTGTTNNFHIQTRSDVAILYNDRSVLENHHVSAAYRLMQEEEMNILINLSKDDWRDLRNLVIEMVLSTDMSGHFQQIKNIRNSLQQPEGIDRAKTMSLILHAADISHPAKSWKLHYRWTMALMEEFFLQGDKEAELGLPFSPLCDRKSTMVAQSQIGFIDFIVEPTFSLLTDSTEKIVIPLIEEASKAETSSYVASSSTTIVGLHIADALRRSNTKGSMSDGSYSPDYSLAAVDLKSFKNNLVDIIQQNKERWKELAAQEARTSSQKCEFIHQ
T2 sequence (O76083 1-533 isoform O76083-2): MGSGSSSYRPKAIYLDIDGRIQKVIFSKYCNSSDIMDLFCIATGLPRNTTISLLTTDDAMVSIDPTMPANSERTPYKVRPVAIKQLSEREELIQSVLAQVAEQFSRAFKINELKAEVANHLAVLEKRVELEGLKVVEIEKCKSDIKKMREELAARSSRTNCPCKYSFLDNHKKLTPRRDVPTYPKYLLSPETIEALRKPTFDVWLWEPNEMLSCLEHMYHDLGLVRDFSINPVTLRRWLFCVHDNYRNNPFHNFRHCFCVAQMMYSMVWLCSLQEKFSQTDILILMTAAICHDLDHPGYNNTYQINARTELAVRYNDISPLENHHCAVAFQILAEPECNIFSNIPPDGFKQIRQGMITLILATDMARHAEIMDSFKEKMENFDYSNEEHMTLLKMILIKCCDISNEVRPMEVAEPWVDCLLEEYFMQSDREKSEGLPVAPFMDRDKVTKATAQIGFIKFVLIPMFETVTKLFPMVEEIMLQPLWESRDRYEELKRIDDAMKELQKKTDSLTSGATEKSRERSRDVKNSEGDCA
T3 sequence (Q01064 whole entry): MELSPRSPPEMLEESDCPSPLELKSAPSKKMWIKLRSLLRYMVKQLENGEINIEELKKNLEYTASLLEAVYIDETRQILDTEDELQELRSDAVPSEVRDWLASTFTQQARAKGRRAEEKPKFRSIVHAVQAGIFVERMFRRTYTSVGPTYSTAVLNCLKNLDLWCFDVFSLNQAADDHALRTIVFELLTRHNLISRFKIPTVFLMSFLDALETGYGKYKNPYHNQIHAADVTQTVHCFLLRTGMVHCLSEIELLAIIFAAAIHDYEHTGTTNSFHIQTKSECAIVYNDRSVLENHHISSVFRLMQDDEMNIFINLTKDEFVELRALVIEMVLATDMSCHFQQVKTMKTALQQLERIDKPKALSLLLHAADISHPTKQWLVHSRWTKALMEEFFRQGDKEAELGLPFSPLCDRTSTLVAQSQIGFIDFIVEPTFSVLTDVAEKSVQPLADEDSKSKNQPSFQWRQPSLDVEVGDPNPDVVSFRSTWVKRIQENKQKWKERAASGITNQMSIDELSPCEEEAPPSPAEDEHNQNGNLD

Compound | PDE1A selectivity (versus PDE9A2) [1, 4] | IC50 [2] | PDE1B selectivity (versus PDE9A2) [3, 5] | other results
CCC(CC)c1ncc2c(=O)[nH]c(C3CN(Cc4ccccc4)CC3C)nn12 (single isomer, unassigned; (+)) [(+)-2-((3,4-trans)-1-benzyl-4-methylpyrrolidin-3-yl)-7-(pentan-3-yl)imidazo[5,1-f][1,2,4]triazin-4(3H)-one] | 175 | < 1000 nM | 86 | –
CC1CN(CCc2cncnc2)CC1c1nn2c(C3CCOCC3)ncc2c(=O)[nH]1 (single isomer, unassigned; (+)) [(+)-2-((3,4-trans)-4-methyl-1-(2-(pyrimidin-5-yl)ethyl)pyrrolidin-3-yl)-7-(tetrahydro-2H-pyran-4-yl)imidazo[5,1-f][1,2,4]triazin-4(3H)-one] | – | – | – | PDE1A selectivity (versus PDE9A2) [1, 6]: 71; IC50 ([2]; Table 2, 10 concentrations, 4.0 μM cGMP substrate, 1 hour at R.T.): < 1000 nM; PDE1B selectivity (versus PDE9A2) [3, 6]: 89
CC1CN(Cc2ccccc2N2CCCC2)CC1c1nn2c(C3CCOCC3)ncc2c(=O)[nH]1 (single isomer, unassigned; (+)) [(+)-2-((3,4-trans)-4-methyl-1-(2-(pyrrolidin-1-yl)benzyl)pyrrolidin-3-yl)-7-(tetrahydro-2H-pyran-4-yl)imidazo[5,1-f][1,2,4]triazin-4(3H)-one] | – | – | – | PDE1A selectivity (versus PDE9A2) [1, 7]: 184; IC50 [2, 8]: < 1000 nM; PDE1B selectivity (versus PDE9A2) [3, 7]: 213
CC1CN(Cc2ccccc2OC(F)(F)F)CC1c1nn2c(C3CCOCC3)ncc2c(=O)[nH]1 (single isomer, unassigned; (+)) [(+)-2-((3,4-trans)-4-methyl-1-(2-(trifluoromethoxy)benzyl)pyrrolidin-3-yl)-7-(tetrahydro-2H-pyran-4-yl)imidazo[5,1-f][1,2,4]triazin-4(3H)-one] | – | – | – | PDE1A selectivity (versus PDE9A2) ([1]; ratio of IC50 values PDE1A / PDE9A2, value greater than 1 = greater selectivity for PDE9A2): 173; IC50 ([2]; 4.0 μM cGMP substrate, 1 hour at R.T.): < 1000 nM; PDE1B selectivity (versus PDE9A2) ([3]; ratio of IC50 values PDE1B / PDE9A2, value greater than 1 = greater selectivity for PDE9A2): 24
CC1CN(Cc2ccccc2C(F)(F)F)CC1c1nn2c(C3CCOCC3)ncc2c(=O)[nH]1 (single isomer, unassigned; (+)) [(+)-2-((3,4-trans)-4-methyl-1-(2-(trifluoromethyl)benzyl)pyrrolidin-3-yl)-7-(tetrahydro-2H-pyran-4-yl)imidazo[5,1-f][1,2,4]triazin-4(3H)-one] | – | – | – | PDE1A selectivity (versus PDE9A2) [1, 7]: 73; IC50 [2, 8]: < 1000 nM; PDE1B selectivity (versus PDE9A2) [3, 7]: 16

Continued, in another order:

PDE1A selectivity (versus PDE9A2) [1, 4] | IC50 [2] | PDE1B selectivity (versus PDE9A2) [3, 5] | Compound | other results
220 | < 1000 nM | 286 | CC1CN(Cc2ccccc2)CC1c1nn2c(-c3ccc(F)cc3)ncc2c(=O)[nH]1 (single isomer, unassigned; (+)) [(+)-2-((3,4-trans)-1-benzyl-4-methylpyrrolidin-3-yl)-7-(4-fluorophenyl)imidazo[5,1-f][1,2,4]triazin-4(3H)-one] | –
148 | < 1000 nM | 379 | Cc1ccncc1-c1ncc2c(=O)[nH]c(C3CN(Cc4ccccc4)CC3C)nn12 (single isomer, unassigned; (+)) [(+)-2-((3,4-trans)-1-benzyl-4-methylpyrrolidin-3-yl)-7-(4-methylpyridin-3-yl)imidazo[5,1-f][1,2,4]triazin-4(3H)-one] | –
461 | < 1000 nM | 531 | Cc1ccccc1-c1ncc2c(=O)[nH]c(C3CN(Cc4ccccc4)CC3C)nn12 (single isomer, unassigned; (+)) [(+)-2-((3,4-trans)-1-benzyl-4-methylpyrrolidin-3-yl)-7-(o-tolyl)imidazo[5,1-f][1,2,4]triazin-4(3H)-one] | –
4 | < 1000 nM | 12 | CC1CN(Cc2ccccc2)CC1c1nn2c(-c3ccccc3)ncc2c(=O)[nH]1 (single isomer, unassigned; (+)) [(+)-2-((3,4-trans)-1-benzyl-4-methylpyrrolidin-3-yl)-7-phenylimidazo[5,1-f][1,2,4]triazin-4(3H)-one] | –
